Experimental findings from ChEMBL document CHEMBL4390686, “Design, Synthesis, and Pharmacokinetic Evaluation of Phosphate and Amino Acid Ester Prodrugs for Improving the Oral Bioavailability of the HIV-1 Protease Inhibitor Atazanavir” (J Med Chem, 2019) are described below.

A word on the solubility: it is the dissolved amount per volume that the medium holds. By half-life is commonly meant how long it takes for the measured level to halve. High values mean slow loss, low ones fast loss. In general, EC50 refers to the concentration that produces a half-maximal response. High values mean a need for much substance, low ones an effect from little substance. The term IC50 denotes the midpoint of a concentration-inhibition curve. Low readings indicate higher potency, high ones lower potency. In general, Tmax refers to the time from dosing to the highest level. For orientation: Cmax means the peak of the concentration-time curve.

In brackets after ≈: the same amount, converted by molar mass. Bounds are passed on as bounds.

The nature of data set [1]: physchem. The following applies: acetate buffer, pH 4.
Description: Aqueous solubility of the compound in pH 4 acetate buffer by RP-UPLC analysis
Data set [2] in a line: physchem. The following applies: 30% CH3CN/HCl buffer, pH 1.
Description: Half life in pH 1 30%CH3CN/HCl buffer at 50 mM by RP-UPLC analysis
Data set [3] can be described thus: physchem. The following applies: HCl buffer, pH 1.
Description: Aqueous solubility of the compound in pH 1 HCl buffer by RP-UPLC analysis
Data set [4] in a line: physchem. The following applies: 30% CH3CN/acetate buffer, pH 4.
Description: Half life in pH 4 30%CH3CN/acetate buffer at 50 mM by RP-UPLC analysis
Data set [5] in a line: physchem. The following applies: 30% CH3CN/phosphate buffer, pH 7.4.
Description: Half life in pH 7.4 30%CH3CN/phosphate buffer at 50 mM by RP-UPLC analysis
Data set [6] can be described thus: physchem. The following applies: phosphate buffer, pH 7.4.
Description: Aqueous solubility of the compound in pH 7.4 phosphate buffer by RP-UPLC analysis
The test system of data set [7] is Human immunodeficiency virus 1.
Description: Antiviral activity against HIV1 NL4-3 infected in human MT2 cells assessed as reduction in viral yield measured after 4 days by EnduRen live cell substrate based luciferase reporter gene assay
A short description of data set [8]: physchem. The following applies: 30% CH3CN/phosphate buffer, pH 6.5.
Description: Half life in pH 6.5 30%CH3CN/phosphate buffer at 50 mM by RP-UPLC analysis
For data set [9], the target named is Protease (Human immunodeficiency virus 1, UniProt Q9YQ12).
Description: Inhibition of HIV1 protease activity
Data set [10] is described as follows: physchem. The following applies: phosphate buffer, pH 6.5.
Description: Aqueous solubility of the compound in pH 6.5 phosphate buffer by RP-UPLC analysis
The conditions of data set [11]: rat, in vivo, po, 3 mg/kg.
For data set [12] the following is noted: rat, in vivo, po, 3 mg/kg. This is another data set of the same source.
The conditions of data set [13]: rat, in vivo, po, 3 mg/kg. The source holds these as a separate data set.
Description: AUClast in cannulated Sprague-Dawley rat assessed as atazanavir level at 3 mg/kg equiv of atazanavir administered orally by UPLC/MS/MS analysis

Chain of Protease (Q9YQ12 whole entry): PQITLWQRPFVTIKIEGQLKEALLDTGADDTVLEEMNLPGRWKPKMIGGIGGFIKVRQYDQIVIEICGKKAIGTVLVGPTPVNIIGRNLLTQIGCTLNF

As for `COC(=O)N[C@H](C(=O)N[C@@H](Cc1ccccc1)[C@H](CN(Cc1ccc(-c2ccccn2)cc1)NC(=O)[C@@H](NC(=O)OC)C(C)(C)C)OC(=O)[C@H](N)CCSC)C(C)(C)C`, the solubility in data set [1] is over 890 µg/mL; in data set [3] it was over 990 µg/mL; in data set [6], 45 µg/mL (≈ 53.8 µM). Further, the figures for the half-life at 50000 µM in [2], in data set [4] and in data set [5] were over 20.8 days, over 20.8 days and 4.05 days, respectively.

As for `COC(=O)N[C@H](C(=O)N[C@@H](Cc1ccccc1)[C@H](CN(Cc1ccc(-c2ccccn2)cc1)NC(=O)[C@@H](NC(=O)OC)C(C)(C)C)OC(=O)[C@@H](C)N)C(C)(C)C`, the solubility in data set [1] is over 1700 µg/mL; in data set [3] it was over 1300 µg/mL; in data set [10], 520 µg/mL (≈ 670 µM). Moreover, the half-life at 50000 µM in [2] was over 20.8 days; in [8], 1.57 days; in data set [4], over 20.8 days. Further, in data set [7], the 50% effective concentration (EC50) fell in the range of 0.9 to 1250 nM. In data set [9], the IC50 was 4 to 1140 nM. In data set [11], the time to peak (Tmax) was determined as 0.179 days. For the same compound, in [12], the peak level (Cmax) was 3 nM. In data set [13], this compound gave an AUClast of 0.008 µM·h.

As for `COC(=O)N[C@H](C(=O)N[C@@H](Cc1ccccc1)[C@H](CN(Cc1ccc(-c2ccccn2)cc1)NC(=O)[C@@H](NC(=O)OC)C(C)(C)C)OC(=O)[C@@H](N)Cc1c[nH]c2ccccc12)C(C)(C)C`, the figures for the solubility in data set [1], in data set [3] and in data set [6] were over 910 µg/mL, over 1040 µg/mL and 1 µg/mL (≈ 1.12 µM), respectively. The half-life at 50000 µM in [2] is 15.7 days; in [4], 15.7 days; in data set [5], 6.97 days. In data set [11], the Tmax was determined as 0.033 days. The maximum concentration (Cmax) in data set [12] was 90 nM. For the same compound, in [13], the AUClast was determined as 0.19 µM·h.

Take `COC(=O)N[C@H](C(=O)N[C@@H](Cc1ccccc1)[C@H](CN(Cc1ccc(-c2ccccn2)cc1)NC(=O)[C@@H](NC(=O)OC)C(C)(C)C)OC(=O)[C@H](NC(=O)[C@@H](N)C(C)C)C(C)C)C(C)(C)C`: the solubility is over 1420 µg/mL in [1], over 1710 µg/mL in data set [3] and 930 µg/mL (≈ 1030 µM) in [10]. The half-life at 50000 µM in data set [2], in [8] and in data set [4] was over 20.8 days each time. This compound also returned an EC50 in data set [7] of 0.9 to 1250 nM. Also, the IC50 in data set [9] was in the range of 4 to 1140 nM.

For the compound `COC(=O)N[C@H](C(=O)N[C@@H](Cc1ccccc1)[C@H](CN(Cc1ccc(-c2ccccn2)cc1)NC(=O)[C@@H](NC(=O)OC)C(C)(C)C)OC(=O)CN(C)C(=O)[C@H](Cc1ccccc1)N(C)C)C(C)(C)C`, the solubility in data set [1] was over 2200 µg/mL; in [3], over 1200 µg/mL; in [10], 20 µg/mL (≈ 21 µM). The half-life at 50000 µM in data set [2] is 15.7 days; in [8], over 13.9 days; in [4], over 20.8 days. Also, in data set [11], the time to peak (Tmax) was found to be 0.021 days. Moreover, the highest concentration (Cmax) in [12] was found to be 285 nM. The compound also registered an AUClast in data set [13] of 0.359 µM·h.

Take `COC(=O)N[C@H](C(=O)N[C@@H](Cc1ccccc1)[C@H](CN(Cc1ccc(-c2ccccn2)cc1)NC(=O)[C@@H](NC(=O)OC)C(C)(C)C)OC(=O)CN)C(C)(C)C`: the solubility in [1] is over 1600 µg/mL; in data set [3], over 1200 µg/mL; in data set [6], 960 µg/mL (≈ 1260 µM). Further, the half-life at 50000 µM in [2] was over 20.8 days; in data set [4] it was over 20.8 days; in data set [5], 1.63 days. For the same compound, in data set [7], the concentration giving a half-maximal response (EC50) is 0.9 to 1250 nM. This compound also came in with an IC50 in data set [9] of 4 to 1140 nM. Besides, in data set [11], the Tmax was found to be 0.38 days. In addition, in data set [12], the peak level (Cmax) was 162 nM. Also, the AUClast in data set [13] stood at 0.224 µM·h.

As to `COC(=O)N[C@H](C(=O)N[C@@H](Cc1ccccc1)[C@H](CN(Cc1ccc(-c2ccccn2)cc1)NC(=O)[C@@H](NC(=O)OC)C(C)(C)C)OC(=O)[C@H](N)Cc1ccccc1)C(C)(C)C`, the solubility in data set [1] is over 1200 µg/mL; in data set [3] it was over 1200 µg/mL; in data set [10], under 1 µg/mL. The half-life at 50000 µM in [2], in data set [8] and in [4] was over 20.8 days throughout. In addition, the EC50 in data set [7] was 0.9 to 1250 nM. The compound further returned an IC50 in data set [9] of 4 to 1140 nM. Also, in data set [11], the time to peak (Tmax) turned out to be 0.021 days. The same compound showed a Cmax in [12] of 64 nM. In addition, in data set [13], the AUClast stood at 0.154 µM·h.

`CN[C@@H](Cc1ccccc1)C(=O)N(C)CC(=O)O[C@@H](CN(Cc1ccc(-c2ccccn2)cc1)NC(=O)[C@@H](NC(=O)OC)C(C)(C)C)[C@H](Cc1ccccc1)NC(=O)[C@@H](NC(=O)OC)C(C)(C)C`: the half-life at 50000 µM was 15.7 days in [2], 0.00333 days in data set [8] and 0.65 days in data set [4]. The same compound showed a solubility in data set [3] of over 2700 µg/mL. Further, the Tmax in data set [11] is 0.012 days. This compound also came in with a maximum concentration (Cmax) in data set [12] of 160 nM. The compound also displayed an AUClast in [13] of 0.092 µM·h.

As for `COC(=O)N[C@H](C(=O)N[C@@H](Cc1ccccc1)[C@H](CN(Cc1ccc(-c2ccccn2)cc1)NC(=O)[C@@H](NC(=O)OC)C(C)(C)C)OC(=O)[C@@H](N)CCSC)C(C)(C)C`, the solubility in data set [1] was over 1530 µg/mL; in data set [3] it was over 1630 µg/mL; in data set [6], 44 µg/mL (≈ 52.6 µM). Moreover, the half-life at 50000 µM in [2] is over 20.8 days; in [4], over 20.8 days; in data set [5], 4.33 days. Besides, the time to peak (Tmax) in [11] came to 0.0346 days. This compound yielded a Cmax in [12] of 37 nM. This compound also showed an AUClast in data set [13] of 0.053 µM·h.

For `CNCC(=O)O[C@@H](CN(Cc1ccc(-c2ccccn2)cc1)NC(=O)[C@@H](NC(=O)OC)C(C)(C)C)[C@H](Cc1ccccc1)NC(=O)[C@@H](NC(=O)OC)C(C)(C)C`, the solubility in [1] is over 2400 µg/mL; in data set [3], over 2200 µg/mL; in data set [10], 930 µg/mL (≈ 1200 µM). For the same compound, the half-life at 50000 µM in [2] was over 20.8 days; in data set [8] it was 1.04 days; in data set [4], over 13.9 days. Further, the time to peak (Tmax) in [11] came to 0.021 days. The Cmax in data set [12] came out at 9 nM. In addition, in data set [13], the AUClast stood at 0.0296 µM·h.

As for `COC(=O)N[C@H](C(=O)N[C@@H](Cc1ccccc1)[C@H](CN(Cc1ccc(-c2ccccn2)cc1)NC(=O)[C@@H](NC(=O)OC)C(C)(C)C)OC(=O)[C@@H](NC(=O)[C@H](N)C(C)C)C(C)C)C(C)(C)C`, the solubility is over 2000 µg/mL in [1], over 2000 µg/mL in data set [3] and 620 µg/mL (≈ 686 µM) in data set [10]. In addition, the half-life at 50000 µM in data set [2], in [8] and in data set [4] was over 20.8 days in each case. In [7], this compound showed an EC50 of 0.9 to 1250 nM. The compound further had an IC50 in data set [9] of 4 to 1140 nM.

As to `COC(=O)N[C@H](C(=O)N[C@@H](Cc1ccccc1)[C@H](CN(Cc1ccc(-c2ccccn2)cc1)NC(=O)[C@@H](NC(=O)OC)C(C)(C)C)OC(=O)[C@H](C)N)C(C)(C)C`, the solubility is over 1100 µg/mL in data set [1], over 1300 µg/mL in data set [3] and 750 µg/mL (≈ 967 µM) in data set [10]. For the same compound, the half-life at 50000 µM was over 20.8 days in [2], 1.57 days in data set [8] and over 20.8 days in data set [4]. The compound further displayed an EC50 in data set [7] of 0.9 to 1250 nM. Moreover, in data set [9], the IC50 lay within 4 to 1140 nM. In data set [11], the Tmax was 0.12 days. Moreover, the peak level in [12] (Cmax) was 39 nM. The same compound returned an AUClast in data set [13] of 0.094 µM·h.
